# How the values were obtained:
# Experiment in all cases: relative viability (nuclei count vs DMSO), 5 days (fraction); higher = more cells survive
# Obatoclax + Bortezomib = compound: COC1=CC(c2cc3ccccc3[nH]2)=N/C1=C\c1[nH]c(C)cc1C [Obatoclax] + CC(C)C[C@H](NC(=O)[C@H](Cc1ccccc1)NC(=O)c1cnccn1)B(O)O [Bortezomib] (partner 0.002 µM)
# Outline: (§1)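 Medians of duplicate plates are given as relative viability. That measure is the nuclei count in treated wells divided by the count in vehicle wells. Counts were taken on 4× images of lung cancer cell lines in 1536-well plates, 5 days after pin-tool dosing the day after seeding with one drug alone or a fixed anchor-drug dose plus five library-drug doses (not always all listed) in √10 steps.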
# Obatoclax + Alpelisib = compound: COC1=CC(c2cc3ccccc3[nH]2)=N/C1=C\c1[nH]c(C)cc1C [Obatoclax] + Cc1nc(NC(=O)N2CCC[C@H]2C(N)=O)sc1-c1ccnc(C(C)(C)C(F)(F)F)c1 [Alpelisib] (partner 2 µM)
# Outline: as §1
# [1] = compound: CC1=CC(=NN1)NC2=CC(=NC(=N2)/C=C/C3=CC=CC=C3)N4CCN(CC4)C + CS(=O)(=O)N1CCN(Cc2cc3nc(-c4cccc5[nH]ncc45)nc(N4CCOCC4)c3s2)CC1 [Pictilisib] (partner 1 µM)
# Outline: as §1
# Bortezomib + Foretinib = compound: CC(C)C[C@H](NC(=O)[C@H](Cc1ccccc1)NC(=O)c1cnccn1)B(O)O [Bortezomib] + COc1cc2c(Oc3ccc(NC(=O)C4(C(=O)Nc5ccc(F)cc5)CC4)cc3F)ccnc2cc1OCCCN1CCOCC1 [Foretinib] (partner 0.25 µM)
# Outline: as §1
Cell Line,relative viability (Obatoclax + Bortezomib; first compound 0.01 µM),relative viability (Obatoclax + Bortezomib; first compound 0.03162 µM),relative viability (Obatoclax + Bortezomib; first compound 0.1 µM),relative viability (Obatoclax + Bortezomib; first compound 0.3162 µM),relative viability (Obatoclax + Bortezomib; first compound 1 µM),relative viability (Obatoclax + Alpelisib; first compound 0.01 µM),relative viability (Obatoclax + Alpelisib; first compound 0.03162 µM),relative viability (Obatoclax + Alpelisib; first compound 0.1 µM),relative viability (Obatoclax + Alpelisib; first compound 0.3162 µM),relative viability (Obatoclax + Alpelisib; first compound 1 µM),relative viability ([1]; first compound 0.08 µM),relative viability ([1]; first compound 0.253 µM),relative viability ([1]; first compound 0.8 µM),relative viability ([1]; first compound 2.53 µM),relative viability ([1]; first compound 8 µM),relative viability (Bortezomib + Foretinib; first compound 0.0002 µM),relative viability (Bortezomib + Foretinib; first compound 0.000632 µM),relative viability (Bortezomib + Foretinib; first compound 0.002 µM),relative viability (Bortezomib + Foretinib; first compound 0.006325 µM),relative viability (Bortezomib + Foretinib; first compound 0.02 µM)
PC-3 [JPC-3],0.905,0.789,0.815,0.827,0.977,0.968,1.01,0.999,0.975,1.1,0.763,0.721,0.706,0.648,0.579,1.04,1.05,0.346,0.163,0.121
HCC-44,0.861,0.836,0.822,0.769,0.386,0.84,0.706,0.801,0.607,0.21,0.606,0.627,0.447,0.34,0.245,,,,,
NCI-H2405,1.01,0.852,,0.982,1.07,0.806,0.891,,0.777,0.711,0.473,0.32,0.452,0.179,0.133,1.02,1.05,0.86,0.271,0.188
LXF-289,1.01,1.01,0.999,0.958,0.847,1.01,0.944,1.04,1.04,0.963,0.802,0.783,0.74,0.442,0.277,0.98,0.964,0.991,0.127,0.0671
LOU-NH91,0.531,0.435,,0.367,0.441,0.741,0.651,0.66,0.643,0.636,0.461,0.544,0.513,0.454,0.314,0.863,0.867,0.328,0.258,0.243
A549,,,,,,0.76,0.876,0.748,0.298,0.0816,0.464,0.592,0.332,0.0385,0.0281,0.87,1.01,0.986,0.0286,0.0217
H3255,0.764,0.784,0.725,0.762,0.793,0.611,0.725,0.732,0.631,0.55,0.507,0.534,0.497,0.396,0.205,0.763,0.994,0.935,0.638,0.283
NCI-H1395,,,,,,1.14,1.2,0.982,0.954,0.474,0.668,0.669,0.583,0.379,0.239,1.01,0.927,0.759,0.341,0.328
LC-2-ad,0.979,0.98,0.98,0.785,0.339,0.892,0.931,0.884,0.477,0.655,0.46,0.356,0.247,0.0963,0.0784,0.913,0.899,0.814,0.244,0.203
NCI-H838,1.01,0.748,0.495,0.754,0.404,0.968,0.992,0.914,0.822,0.617,0.463,0.488,0.471,0.193,0.105,1,1,1.17,0.165,0.13
Calu-6,1.03,1.02,0.979,0.955,0.191,0.899,1.01,0.898,0.677,0.205,0.876,0.807,0.648,0.131,0.103,0.803,0.856,0.839,0.0564,0.0507
SW 900,,,,,,,,,,,,,,,,0.87,0.743,0.155,0.119,0.126
LCLC-97TM1,0.735,0.449,0.439,0.619,0.213,0.27,0.232,0.283,0.227,0.293,0.171,0.102,0.161,0.105,0.0788,0.906,0.929,0.721,0.242,0.151
HCC-15,0.973,1.02,0.926,0.957,0.739,0.844,0.777,0.827,0.856,0.609,0.739,0.548,0.667,0.299,0.104,0.933,1.09,0.628,0.0908,0.0905
CAL-12T,0.969,1.02,0.915,0.697,0.567,1.14,1.29,1.01,0.695,0.129,0.335,0.426,0.48,0.187,0.147,1.18,1.07,1.08,0.743,0.154
NCI-H727,0.892,0.827,1.17,0.847,0.335,0.575,0.578,0.405,0.475,0.245,0.357,0.298,0.34,0.199,0.153,0.809,0.694,0.93,0.603,0.169

Cell Line,relative viability (Obatoclax + Bortezomib; first compound 0.01 µM),relative viability (Obatoclax + Bortezomib; first compound 0.03162 µM),relative viability (Obatoclax + Bortezomib; first compound 0.1 µM),relative viability (Obatoclax + Bortezomib; first compound 0.3162 µM),relative viability (Obatoclax + Bortezomib; first compound 1 µM),relative viability (Obatoclax + Alpelisib; first compound 0.01 µM),relative viability (Obatoclax + Alpelisib; first compound 0.03162 µM),relative viability (Obatoclax + Alpelisib; first compound 0.1 µM),relative viability (Obatoclax + Alpelisib; first compound 0.3162 µM),relative viability (Obatoclax + Alpelisib; first compound 1 µM),relative viability ([1]; first compound 0.08 µM),relative viability ([1]; first compound 0.253 µM),relative viability ([1]; first compound 0.8 µM),relative viability ([1]; first compound 2.53 µM),relative viability ([1]; first compound 8 µM),relative viability (Bortezomib + Foretinib; first compound 0.0002 µM),relative viability (Bortezomib + Foretinib; first compound 0.000632 µM),relative viability (Bortezomib + Foretinib; first compound 0.002 µM),relative viability (Bortezomib + Foretinib; first compound 0.006325 µM),relative viability (Bortezomib + Foretinib; first compound 0.02 µM)
ABC-1,0.323,0.134,0.23,0.323,0.212,1.04,1.18,1.09,1.19,0.573,0.764,0.76,0.792,0.284,0.173,0.917,0.874,0.284,0.229,0.204
NCI-H2023,1.03,1.08,0.808,0.675,0.425,0.603,0.667,0.578,0.605,0.334,0.203,0.266,0.197,0.0664,0.0528,0.911,0.802,1.06,0.282,0.0757
NCI-H358,,,,,,0.925,0.848,0.635,0.336,0.283,0.296,0.29,0.293,0.138,0.108,0.538,0.647,0.642,0.0816,0.0663
SW 1573,1.04,0.998,0.925,0.895,0.476,0.789,0.701,0.946,0.672,0.556,0.478,0.478,0.393,0.179,0.0655,0.943,0.907,1.02,0.327,0.0926
NCI-H1993,1.2,1.05,1.22,1.2,1.2,0.704,0.648,0.682,0.667,0.6,0.817,,0.744,0.808,0.599,0.802,0.755,0.912,0.648,0.479
NCI-H661,0.805,0.704,0.865,0.843,0.786,0.643,0.507,0.261,0.458,0.84,,0.408,0.346,0.259,0.205,1.04,1.03,1.01,0.559,0.219
ChaGo-K-1,1.11,0.949,,0.968,1.23,,,,,,0.605,0.912,1,0.292,0.271,0.837,0.822,0.992,0.245,0.185
NCI-H2170,,,,,,0.777,0.749,0.825,0.724,0.683,0.283,0.301,0.257,0.166,0.136,1.02,0.952,1.03,0.596,0.167
NCI-H1650,0.208,0.198,0.196,0.19,0.197,,,,,,0.519,0.526,0.549,0.113,0.0653,1.19,1.15,0.223,0.16,0.164
NCI-H1623,,,,,,,,,,,,,,,,0.831,0.992,0.803,0.473,0.344
NCI-H1944,,,,,,0.808,0.817,0.859,0.89,0.839,0.317,0.34,0.348,0.281,0.223,0.791,0.818,0.87,0.724,0.199
SK-MES-1,,,,,,0.828,0.785,1.01,0.824,0.645,0.341,0.357,0.279,0.168,0.134,1.01,0.946,0.967,0.632,0.241
NCI-H1792,0.992,0.926,,0.917,0.975,0.746,0.658,,0.638,0.781,0.268,0.259,0.293,0.205,0.0778,,,,,
NCI-H2342,,,,,,,,,,,,,,,,1.02,0.945,0.829,0.929,0.34
NCI-H1793,,,,,,0.702,0.629,0.885,0.678,0.795,0.229,0.235,0.306,0.293,0.116,0.611,0.617,0.666,0.512,0.155
LK-2,,,,,,1.07,1.13,1.43,1.07,1.03,0.464,0.694,0.54,0.279,0.186,0.982,1.39,1.12,0.161,0.165

# Source: the supplement of paper PMC10307832
